Like-named read-outs stand apart in the source and are kept apart here.
Legend:
[1] = tested on: human microvascular endothelial cells (HMEC) spheroids; assay: Spheroid tubule growth assay; format: cell-based; details: matrigel with VEGF; serotonin 50 nM, R-DOI 100 nM, TCB2 500 nM
Method: FIG. 16 is a series of fluorescent micrographs showing the effect of 5HT2A receptor agonists on vascular tubule growth from tissue-like spheroids.
HMEC cells were cultured in specially coated U-shaped bottom 96 well plates in order to form tissue-like three-dimension spheroids. Spheroids were subsequently implanted into wells that contained matrigel basement membranes supplemented with vascular endothelial growth factor (VEGF) or starved (Starvation control-no VEGF). Culture media was treated with either serotonin (50 nM), (R-DOI (100 nM), or TCB2 (500 nM) outgrowth from the spheroids of vascular-like structures was monitored microscopically.

[2] = tested on: Herpes Simplex Virus type 1 (HSV-1) RE strain; assay: Herpes stromal keratitis model, C57bl/6 mice, topical eye drops; format: in vivo
HSV-1 = tested on: HSV-1; design: species or system mice; details: 500 nM; for HSV-1 reactivation from latency (in words): ex vivo TG explants
[3] = tested on: Herpes Simplex Virus type 1 (HSV-1) RE strain; assay: Herpes stromal keratitis model, BALB/c mice, topical eye drops, clinical scoring and histology; format: in vivo; details: for animal body weight: HSV-1 infected mice, relative to BSS controls; for HSV-induced pathological vascularization of the eye: mouse models of herpetic keratitis, ophthalmic formulation
Method: DOI drops were topically applied for 7 days post infection and chronic disease was assessed up to day 15.
There is a complete absence of inflammatory or red blood cells and no vascularization of corneal tissue. 2nd row panels: HSV infection and long-term inflammatory responses induces disruption of the epithelial layer, thickening of the stroma, and identifiable vascularization of corneal tissue (yellow arrows) with extensive presence of immune infiltrates.
16 BALB/c mice were randomly sorted into 3 treatment arms: 1) Ophthalmic Balanced Saline Solution diluted 1:1 in PBS (BSS+PBS) treated (6 mice); 2) DOI treated (XTPFDOI) (5 mice); 3) 1.0% TFT (TFT+PBS) (5 mice). Animals were anesthetized with […]:ketamine and both eyes were scarified in a cross hatch pattern using a curved needle. Immediately following ocular scarification, eyes were inoculated with a 3 microliter drop containing 10,000 plaque forming units (PFU) of Herpes Simplex Virus type 1 (HSV-1) RE strain. The next morning following infection, animals were treated with the respective treatment as assigned within their treatment arm. Treatments were applied topically to the eye in a 4 microliter drop. Drops were applied 4 time per day from 9:00 am to 5:30 pm, starting immediately following clinical scoring. Treatments were applied for the first 8 days post infection and then stopped. Clinical scoring was done using a slit lamp biomicroscope magnified at 16× on the days indicated by a single individual masked to the drug treatment parameters. Slit lamp biomicroscopy also included fluorescein exclusion labeling of the corneal surface following scoring of all clinical parameters. Each eye was scored independently. Animal deaths were recorded if euthanasia was required due to severe encephalitis or if animals died from HSV-associated disease. Clinically clear eyes were scored as such if no apparent signs of disease were present in any clinical parameter during the chronic phase.
At day 15 post infection, a stage that would be during chronic immune-associated disease with no virus present, animals were euthanized and the eyes were removed for histology. Random representative eyes were prepared by taking sections through the central cornea and processed by H&E histology for visualization. Sections were examined microscopically and photographed across the central cornea.

[4] = tested on: VEGF-mediated corneal vascularization; assay: VEGF-mediated ocular vascularization model, topical DOI; format: in vivo, rabbit; details: eyes treated with DOI
Method: A rabbit corneal micropocket assay is used to assess the ability of topically administered DOI to prevent VEGF-mediated corneal vascularization. VEGF or saline control slow release micropellets are generated as described previously. A corneal micropocket is created in each rabbit eye 3.0 mm from the corneal limbus, and micropellets are implanted. Starting the day after implant, paired OD and OS eyes are treated four times daily with either control (OD eyes) or DOI (OS eyes) drops, respectively. The utilization of sister eyes for topical drug evaluation controls for animal-to-animal variability. Eyes are clinically assessed daily and imaged by slit lamp biomicroscopy as described in all other ocular studies herein.
VEGF-induced vascularization and vessel permeability can lead to corneal edema, inflammation, and ocular clouding. Therefore, a panel of clinical parameters (described herein) is assessed daily by fluorescent slit-lamp biomicroscopy to ascertain the therapeutic effects of topical DOI treatment on vascularization-mediated eye disease.
VEGF is a known mediator of vascular permeability and we have observed in this model system that edema and chemosis is common, irrespective of the extent of vascularization induced. […]

[5] = tested on: cancerous retinoblastoma cells (Y-79); assay: Cytotoxicity by lysis, retinoblastoma cells; format: cell-based; details: varying doses
Method: (§1) FIG. 17 is a series of graphs showing the effect of R-DOI dose on cytotoxicity of healthy retinal pigment epithelial cells (APRE) and cancerous retinoblastoma cells (Y-79) at 24 hours (top), 48 hours (middle), and 72 hours (bottom).
(§2) Healthy (APRE) and cancerous (Y-79) retinal cell lines were treated with varying doses of R-DOI and monitored for cytotoxicity by lysis at 24 hour intervals.

aortic rings = assay: Aortic ring assay (VEGF-mediated neovascularization); design: species or system mice
Method: FIG. 13 is a series of photographs showing VEGF-mediated neovascularization from aortic rings in the presence of R-DOI, TCB2, and 4F4PP.
These aortic rings are implanted into matrigel basement membrane and incubated in endothelial cell growth medium containing vascular endothelial growth factor. Aortic rings are continuously incubated in the presence of 5-HT2A receptor agonists and antagonists at the indicated concentrations and examined by microscopy daily. Extensive sprouting, branching and networking of new blood vessels can be observed in control aortic rings, where multiple images needed to be stitched together in order to capture the extensive blood vessel network formed.

[6] = tested on: healthy retinal pigment epithelial cells (APRE); assay: Cytotoxicity by lysis, healthy retinal cells; format: cell-based; details: highest dose tested
Method: as §1, §2

[7] = relative to BSS controls and TFT controls, by day 12 post-infection

NCCc1c[nH]c2ccc(O)cc12 [Serotonin, 5 hydroxytryptamine, reference compound]
vascular-like tubular growth from HMEC spheroids [1]: induced vascularization-like replication and tubule growth

COc1cc(CC(C)N)c(OC)cc1I (stereo not drawn) [DOI, 1-(4-Iodo-2,5-dimethoxyphenyl)propan-2-amine]
clinical scores (three metrics) ([2]; compared to BSS control, by day 16 post-infection): even greater improvement in each metric
clinical scores (slit-lamp biomicroscopy, stromal opacity/inflammation, corneal neovascularization) ([2]; relative to BSS controls, by day 12 post-infection, 4 μl/eye 4x daily for 8 days): decreased score in all three metrics
ganglia positive for infectious HSV-1 (number/total) (HSV-1; day 1 post-explant): 0/7
percentage positive for infectious HSV-1 (HSV-1; day 1 post-explant): (0%)
ganglia positive for infectious HSV-1 (number/total) (HSV-1; day 2 post-explant): 0/7
percentage positive for infectious HSV-1 (HSV-1; day 2 post-explant): (0%)
ganglia positive for infectious HSV-1 (number/total) (HSV-1; day 3 post-explant): 0/7
percentage positive for infectious HSV-1 (HSV-1; day 3 post-explant): (0%)
ganglia positive for infectious HSV-1 (number/total) (HSV-1; day 4 post-explant): 0/7
percentage positive for infectious HSV-1 (HSV-1; day 4 post-explant): (0%)
ganglia positive for infectious HSV-1 (number/total) (HSV-1; day 5 post-explant): 0/7
percentage positive for infectious HSV-1 (HSV-1; day 5 post-explant): (0%)
ganglia positive for infectious HSV-1 (number/total) (HSV-1; day 6 post-explant): 0/7
percentage positive for infectious HSV-1 (HSV-1; day 6 post-explant): (0%)
ganglia positive for infectious HSV-1 (number/total) (HSV-1; day 7 post-explant): 0/7
percentage positive for infectious HSV-1 (HSV-1; day 7 post-explant): (0%)
ganglia positive for infectious HSV-1 (number/total) (HSV-1; day 8 post-explant): 1/7
percentage positive for infectious HSV-1 (HSV-1; day 8 post-explant): (14.3%)
ganglia positive for infectious HSV-1 (number/total) (HSV-1; day 9 post-explant): 1/7
percentage positive for infectious HSV-1 (HSV-1; day 9 post-explant): (14.3%)
ganglia positive for infectious HSV-1 (number/total) (HSV-1; day 10 post-explant): 2/7
percentage positive for infectious HSV-1 (HSV-1; day 10 post-explant): (28.6%)
delay in reactivation of HSV-1 from TGs (HSV-1; relative to mock): 2 fold
degree of reactivation and amount of infectious virus shed from latent neurons (PFU/ml/TG; PFU/ml/positive TG) (HSV-1; relative to mock treated neurons): significantly inhibited the degree of reactivation and amount of infectious virus shed from latent neurons
HSV-1 reactivation from latency (in words) (HSV-1): maintains latency of HSV-1 within reactivation induced neurons
vascular-like tubular growth from HMEC spheroids [1]: abrogated formation of vascular-like tubular growth
animal body weight [3]: retained
eyes exhibiting complete clinical resolution ([3]; by day 15): 60%
histopathology of the eye (cornea) ([3]; day 15 post infection): normal ocular morphology with an absence of clinical signs of ocular disease
development of all clinically scored parameters ([3]; drops for 7 days post infection, chronic disease assessed up to day 15): suppressed development of all clinically scored parameters
control of acute and chronic vision-threatening disease compared to TFT ([3]; herpetic eye disease model): superior at controlling both acute and chronic vision-threatening disease
neovascularization score [3, 7]: decreased
slit lamp score [3, 7]: decreased
stroma capacity score [3, 7]: decreased
clinical presentation of edema and chemosis [4]: greatly reduced
vascularization of the eye [4]: resolution of vascularization

O=c1[nH]c(=O)n([C@H]2C[C@H](O)[C@@H](CO)O2)cc1C(F)(F)F [TFT, trifluorothymidine, reference compound]
HSV replication ([3]; 1% TFT): complete inhibition of HSV replication
animal body weight [3]: did not change body weight relative to BSS controls

COc1cc(C[C@@H](C)N)c(OC)cc1I [R-DOI, R-2,5-Dimethoxy-4-iodoamphetamine]
cytotoxicity by lysis ([5]; Y-79, 24 hours): strong, dose-dependent toxicity
cytotoxicity by lysis ([5]; Y-79, 48 hours): killing effect was saturated at all doses
inhibitory effects for neovascularization, sprouting, branching, and networking (aortic rings; 10 nM concentration): began to no longer be as effective
blood vessel sprouting, branching and formation (aortic rings; VEGF-containing endothelial growth medium, matrigel): inhibited blood vessel sprouting, branching and formation
HSV-1 reactivation from latency (in words) (HSV-1): inhibits HSV-1 reactivation from latent neurons
HSV-1 reactivation from latency (in words) (HSV-1; listed as (R)-DOI): inhibited HSV-1 reactivation from latency
cytotoxicity by lysis [6]: modest cytotoxicity
HSV-induced pathological vascularization of the eye [3]: suppressed HSV-induced pathological vascularization of the eye
HSV-induced pathological vascularization of the eye ([3]; listed as (R)-DOI): demonstrated anti-vascularization properties

From US11759438B2, “Compositions and methods for treating ocular pathologies” (priority 2017, dated 2023)
